According to patent publication EP2891491A1, “Use of (r)-phenylpiracetam for the treatment of sleep disorders” (Merz Pharma GmbH & Co. KGaA, priority 2014, dated 2015):

Columns and labels:
rats = test: motivation tests: progressive ratio task, cost-benefit choice test, consumption test; assay type: in vivo
Description: EXAMPLE 6: Effect of (R)-phenylpiracetam in motivation tests - Figs. 5, 6, 7, 8
Methylphenidate purchased from Sigma (Taufkirchen, Germany) was dissolved in distilled water fresh for each test day. D-Amphetamine purchased from Sigma (Taufkirchen, Germany) was dissolved in 0.9% sterile NaCl solution fresh for each test day. (R)-Phenylpiracetam was dissolved in distilled water fresh for each test day.
One hundred and three male Sprague-Dawley rats (Janvier, Le Genest-St-Isle, France) weighing 225-250 g on arrival were used.
The animals were kept under standard laboratory conditions in groups of up to 4 per care with ad libitum access to water. Standard diet for rodents (Altromin) was available to the animals at 15 g per animal/day
For each test described below, two independent experiments were performed using an identical protocol. After continuous reinforcement training (CRF) training (see below) all animals were assigned to treatment groups, such that performance across all the groups was similar. The treatment groups were evenly distributed throughout the caging system.
In experiment 1 and 2 the following protocols were used:
Overview: Three tests were performed in a consecutive manner on subsequent days. On day 1-2, animals were habituated individually to Skinner boxes in two sessions, one per day, for 30 min. Animals received "free" food pellets at a random time (one pellet per minute on average). On days 3-8 animals were trained in Skinner boxes on a continuous reinforcement schedule (one pellet per lever press). On days 9-10 they were tested in the progressive ratio test (Test 1) off-drug, on days 11-12 on-drug. On day 13, a choice test (Test 2) was performed on-drug, on day 14, a consumption test (Test 3) was performed on-drug. Below, tests are described in detail.
Behavioral testing was conducted in 12 operant test chambers (Med Associates, St. Albans, USA). Each chamber was equipped with a retractable lever, a food dispenser with receptacle, an overhead house light and two stimulus lights, one above the lever and the other above the food receptacle. An infrared photocell beam detected nose pokes into the food receptacle. The apparatus was controlled by a computer system (SmartControl®-Interface and MedPC-software, Med Associates, St. Albans, USA). The light above the food receptacle indicated the delivery of a food pellet in the receptacle. Rats were first habituated to the operant boxes for two sessions (30 min each) on two consecutive days. Thereafter, animals were trained for six sessions on the CRF schedule for 30 min. Followed by 4 sessions (two session off-drug followed by two sessions on-drug) of an increasing fixed ratio (FR) schedule in steps of 5, with 3 repetitions of each step (i.e. 1-1-1; 5-5-5; 10-10-10; ...). When the required FR value of each trial was achieved the light above the food receptacle indicated the delivery of a single food pellet (45 mg, Bioserve, USA). The light remained on until the rat poked its nose in the receptacle. Lever presses while the light was on were counted as perseverative lever presses; they were counted but had no programmed consequences. […] For each session, the value of the last completed ratio (breaking point) was recorded as well as the amount of received rewards, the perseverative lever presses, the duration of the session and the latency to respond. Animals of all treatment groups received respective vehicle/drug infusions 30 min pre-test on the final two sessions involving testing under a PR schedule.
In this task the rats had the choice between working for their preferred food (Bioserve pellets) by pressing the lever on a PR schedule as described above or obtaining lab chow being freely available in a dish (about 15 g) within the operant chamber. The food receptacle and the lever were positioned on the same wall of the operant chamber, the dish containing the lab chow was situated in a corner on the opposite side of the operant chamber. […]

[1] = tested on: subjects with Parkinson's Disease; test: clinical study of EDS in Parkinson patients, Epworth Sleepiness Scale; assay type: in vivo, humans; details: 50 mg bid for 4 weeks, oral, adjunct to L-Dopa
Description: In a prospective, randomized, double-blind, placebo-controlled, parallel group, multicenter study the tolerability, safety and efficacy of (R)-Phenylpiracetam after oral administration adjunct to L-Dopa treatment is confirmed. After a screening period of one week 36 subjects with Parkinson's Disease receive 50 mg (R)-Phenylpiracetam or placebo bid at 8.00 am and 3.00 pm for 4 weeks. A safety follow-up is performed 1 week after the double-blind treatment period. Visits take place 1 week before randomization (V1, day -7), at baseline (V2, day 1), at Week 2 (V3) and Week 4 (V4). A safety follow-up (V5) is performed 1 week after the last intake of study medication. An assessment of excessive daily sleepiness using the Epworth Sleepiness Scale [ESS] takes place at screening, baseline, week 2 and week 4.
The questionnaire asks the subject to rate his or her probability of falling asleep on a scale of increasing probability from 0 to 3 for 8 different situations that most people engage in during their daily lives, though not necessarily every day (Johns et al. J Neurol Neurosurg Psychiatry. 2005;76(12):1636). The scores for the 8 questions are added together to obtain a single number. […]
The absolute change of ESS from day 1 to day 14 and 28 is analyzed.

[2] = in vivo; cited from earlier work

NC(=O)CN1C[C@@H](c2ccccc2)CC1=O [(R)-phenylpiracetam]
consumption of freely available normal food (rats; cost-benefit choice test): does not increase | motivation, i.e. the work load animals are willing to perform to obtain more rewarding food (rats; drug 30 min pre-test): increases motivation | effect on motivation compared with methylphenidate and amphetamine (rats; progressive ratio and cost benefit tests): much stronger than that of methylphenidate and amphetamine | improvement of ESS (absolute change from day 1 to day 14 and 28) [1]: at least 3 points | memory function in the passive avoidance test [2]: enhanced memory function significantly better compared to (S)-phenylpiracetam
